Consider six compounds from US20230287051A1, “INHIBITORS OF COMPLEMENT FACTOR C3 AND THEIR MEDICAL USES” (ZP SPV 3 K/S, priority 2020, published 2023).

One may read the Kd as the constant that tells how readily two partners part at equilibrium. The low end stands for tighter binding, the high end for weaker binding. As a reminder, the IC50 is the concentration at which inhibition is half-maximal.

Numbered stars: 1 amine (or outer) side, 2 acyl side, 3 side chain; on linkers, the order of the positions; unused ones are H or OH. Bridge positions count the residues as written; N and C are the ends. Square brackets hold non-standard residues; d marks the D form. Side chains are listed from the residue outwards. Peptide text beside a SMILES is read from it. * marks the point of attachment. Trp(1-Me) = Cn1cc(C[C@H](N)C(=O)O)c2ccccc21; C18 diacid = O=C(O)CCCCCCCCCCCCCCCCC(=O)*; C16 diacid = O=C(O)CCCCCCCCCCCCCCC(=O)*; γGlu = O=C(O)[C@H](CCC(=O)[*:2])N[*:1]; AEEA = NCCOCCOCC(=O)O; CH2 = C([*:1])[*:2]; Sar = CNCC(=O)O

The target of one test is T1, Human C3 (Homo sapiens, UniProt P01024).
T1 construct: purchased Complement tech A113c
The test can be described thus: Affinity measurement by surface plasmon resonance with immobilized C3. The following applies: SPR, immobilized human C3, 25° C., 1:1 Langmuir binding model, n=>2. The method, then:
Surface plasmon resonance (SPR) was used to characterize peptides with respect to their binding affinity (Kd) for C3.
For interaction experiments, a multi-cycle experiment approach was used and performed using a BiacoreX100™ instrument (GE Healthcare) at 25° C. Peptides were injected in increasing concentration series (5 different concentrations and buffer reference) for 180 seconds at a flow rate of 30 μL/min in a buffer consisting of 50 mM Tris buffer at pH 7.4, with 150 mM NaCl and 0.05% Tween20. This was followed by a dissociation period for 10 min. The C3 surface was regenerated between runs by two consecutive injections of 3 M MgCl2 each for 45 seconds.
Sensorgrams were double-referenced (reference surface, blanks) prior to analysis of the kinetic profiles by globally fitting data to a 1:1 Langmuir binding model to obtain association and dissociation rates for calculation of the equilibrium dissociation constant Kd (Table 3). Each peptide was tested at in at least 2 independent experiments.
Background: In SPR one partner is held on a chip, and binding of the other changes the refractive index at the surface.

In test [1] the test system is classical complement pathway. The test can be described thus: In vitro haemolysis assay (inhibition of classical complement pathway). The test is classed as cell-based. The following applies: human serum, sensitized sheep RBC, 30 minutes at 37° C., absorbance at 405 nm, n=>2; read-out: IC50, inhibition of hemolysis. The method, boiled down:
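Compounds in 9-point serial dilution in Tris/casein buffer pH 7.4 (Ca2+/Mg2+) preincubated 15 min at room temperature with diluted human serum (dilution giving 70-90% maximal haemolysis), then antibody-sensitized sheep RBCs added, 30 min at 37° C. EDTA stop; supernatant haemoglobin read at 405 nm. IC50 from 4PL fit, normalized to controls, n≥2.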

In turn, `CC[C@H](C)[C@@H]1NC(=O)[C@@H](NC(=O)[C@H](Cc2ccccc2)NC(=O)[C@H](CCC(=O)O)NC(=O)[C@H](CO)NC(=O)CNC(=O)[C@H](CCC(=O)O)NC(C)=O)CSCSC[C@@H](C(=O)N[C@H](C(=O)N[C@@H](CCC(=O)O)C(=O)NCC(=O)N[C@@H](CCC(=O)O)C(=O)NCCOCCOCC(=O)N[C@@H](CCC(=O)O)C(=O)N[C@@H](CO)C(=O)N[C@@H](CCCCNC(=O)CC[C@H](NC(=O)CCCCCCCCCCCCCCCCC(=O)O)C(=O)O)C(N)=O)[C@@H](C)O)NC(=O)[C@H](CCCNC(=N)N)NC(=O)[C@H](Cc2c[nH]cn2)NC(=O)[C@H](CCC(=O)O)NC(=O)CN(C)C(=O)[C@H](Cc2c[nH]c3ccccc23)NC(=O)[C@H](CC(=O)O)NC(=O)[C@H](CCC(N)=O)NC(=O)[C@H](Cc2cn(C)c3ccccc23)NC1=O` [Compound 20, Ac-EGSEF[C(1)]I[1-Me-Trp]QDW[Sar]EHR[C(1)]TEGE[Peg3]ES-K([17-Carboxy-heptadecanoyl][yGlu])-NH2] (Ac-EGSEFCI[Trp(1-Me)]QDW[Sar]EHRCTEGE[AEEA]ESK([γGlu-C18 diacid])-NH2; linker 6-16 via CH2) registered a Kd at Human C3 of 19 nM. In test [1], the half-maximal inhibitory concentration (IC50) is less than 250 nM.
Consider `CC[C@H](C)[C@@H]1NC(=O)[C@@H](NC(=O)[C@H](Cc2ccccc2)NC(=O)[C@H](CCC(=O)O)NC(=O)[C@H](CO)NC(=O)CNC(=O)[C@H](CCC(=O)O)NC(=O)CCCCCCCCCCCCCCC(=O)O)CSCSC[C@@H](C(=O)N[C@H](C(=O)N[C@@H](CCC(=O)O)C(=O)NCC(=O)N[C@@H](CCC(=O)O)C(N)=O)[C@@H](C)O)NC(=O)[C@H](CCCNC(=N)N)NC(=O)[C@H](Cc2c[nH]cn2)NC(=O)[C@H](CCC(=O)O)NC(=O)CN(C)C(=O)[C@H](Cc2c[nH]c3ccccc23)NC(=O)[C@H](CC(=O)O)NC(=O)[C@H](CCC(N)=O)NC(=O)[C@H](Cc2cn(C)c3ccccc23)NC1=O` [Compound 19] ({C16 diacid}-EGSEFCI[Trp(1-Me)]QDW[Sar]EHRCTEGE-NH2; linker 6-16 via CH2), for which, on Human C3, the Kd was found to be 19 nM. Further, in test [1], the half-inhibitory concentration (IC50) was less than 250 nM.
In the same order, the values of `CC[C@H](C)[C@@H]1NC(=O)[C@@H](NC(=O)[C@H](Cc2ccccc2)NC(=O)[C@H](CCC(=O)O)NC(=O)[C@H](CO)NC(C)=O)CSCSC[C@@H](C(=O)N[C@H](C(=O)N[C@@H](CCC(=O)O)C(=O)NCCOCCOCC(=O)NCCOCCOCC(=O)N[C@@H](CCCCNC(=O)CC[C@H](NC(=O)CNC(=O)CC[C@H](NC(=O)CCCCCCCCCCCCCCCCC(=O)O)C(=O)O)C(=O)O)C(N)=O)[C@@H](C)O)NC(=O)[C@H](CCCNC(=N)N)NC(=O)[C@H](Cc2c[nH]cn2)NC(=O)[C@H](CCC(=O)O)NC(=O)CN(C)C(=O)[C@H](Cc2c[nH]c3ccccc23)NC(=O)[C@H](CC(=O)O)NC(=O)[C@H](CCC(N)=O)NC(=O)[C@H](Cc2cn(C)c3ccccc23)NC1=O` [Compound 10, Ac-SEF[C(1)]I[1-Me-Trp]QDW[Sar]EHR[C(1)]TE[Peg3][Peg3]-K([17-Carboxy-heptadecanoyl][yGlu]G[yGlu])-NH2] (Ac-SEFCI[Trp(1-Me)]QDW[Sar]EHRCTE[AEEA][AEEA]K([γGlu-Gly-γGlu-C18 diacid])-NH2; linker 4-14 via CH2) are 19 nM and less than 250 nM.
Regarding `CC[C@H](C)[C@@H]1NC(=O)[C@@H](NC(=O)[C@H](Cc2ccccc2)NC(=O)[C@@H](NC(=O)CNC(=O)[C@H](CO)NC(=O)[C@@H](N)CCC(=O)O)C(C)C)CSCSC[C@@H](C(=O)N[C@H](C(=O)N[C@@H](CCC(=O)O)C(=O)NCC(=O)N[C@@H](CCC(=O)O)C(=O)NCCOCCOCC(=O)NCCOCCOCC(=O)N[C@@H](CCCCNC(=O)CC[C@H](NC(=O)CNC(=O)CC[C@H](NC(=O)CCCCCCCCCCCCCCCCC(=O)O)C(=O)O)C(=O)O)C(N)=O)[C@@H](C)O)NC(=O)[C@H](CCCNC(=N)N)NC(=O)[C@H](Cc2c[nH]cn2)NC(=O)[C@H](CCC(=O)O)NC(=O)CN(C)C(=O)[C@H](Cc2c[nH]c3ccccc23)NC(=O)[C@H](CC(=O)O)NC(=O)[C@H](CCC(N)=O)NC(=O)[C@H](Cc2cn(C)c3ccccc23)NC1=O` [Compound 29, H-ESGVF[C(1)]I[1-Me-Trp]QDW[Sar]EHR[C(1)]TEGE[Peg3][Peg3]-K([17-Carboxy-heptadecanoyl][yGlu]G[yGlu])-NH2] (H-ESGVFCI[Trp(1-Me)]QDW[Sar]EHRCTEGE[AEEA][AEEA]K([γGlu-Gly-γGlu-C18 diacid])-NH2; linker 6-16 via CH2), the dissociation constant (Kd) on Human C3 was 15 nM. In test [1], the concentration for half-maximal inhibition (IC50) is less than 100 nM.
In the same order, the values of `CC[C@H](C)[C@@H]1NC(=O)[C@@H](NC(=O)[C@H](Cc2ccccc2)NC(=O)[C@H](CCC(=O)O)NC(=O)[C@H](CO)NC(C)=O)CSCSC[C@@H](C(=O)N[C@H](C(=O)N[C@@H](CCC(=O)O)C(=O)NCC(=O)N[C@@H](CCC(=O)O)C(=O)NCCOCCOCC(=O)NCCOCCOCC(=O)N[C@@H](CCCCNC(=O)CC[C@H](NC(=O)CNC(=O)CC[C@H](NC(=O)CCCCCCCCCCCCCCCCC(=O)O)C(=O)O)C(=O)O)C(N)=O)[C@@H](C)O)NC(=O)[C@H](CCCNC(=N)N)NC(=O)[C@H](Cc2c[nH]cn2)NC(=O)[C@H](CCC(=O)O)NC(=O)CN(C)C(=O)[C@H](Cc2c[nH]c3ccccc23)NC(=O)[C@H](CC(=O)O)NC(=O)[C@H](CCC(N)=O)NC(=O)[C@H](Cc2cn(C)c3ccccc23)NC1=O` [Compound 9] (Ac-SEFCI[Trp(1-Me)]QDW[Sar]EHRCTEGE[AEEA][AEEA]K([γGlu-Gly-γGlu-C18 diacid])-NH2; linker 4-14 via CH2) are 17 nM and less than 250 nM.
The like results for `CC[C@H](C)[C@@H]1NC(=O)[C@@H](NC(=O)[C@H](Cc2ccccc2)NC(=O)CNC(=O)[C@H](CO)NC(=O)[C@H](CCC(=O)O)NC(=O)CNC(=O)[C@H](CCC(=O)O)NC(C)=O)CSCSC[C@@H](C(=O)N[C@H](C(=O)N[C@@H](CCC(=O)O)C(=O)NCC(=O)N[C@@H](CCC(=O)O)C(=O)NCCOCCOCC(=O)NCCOCCOCC(=O)N[C@@H](CCCCNC(=O)CC[C@H](NC(=O)CNC(=O)CC[C@H](NC(=O)CCCCCCCCCCCCCCCCC(=O)O)C(=O)O)C(=O)O)C(N)=O)[C@@H](C)O)NC(=O)[C@H](CCCNC(=N)N)NC(=O)[C@H](Cc2c[nH]cn2)NC(=O)[C@H](CCC(=O)O)NC(=O)CN(C)C(=O)[C@H](Cc2c[nH]c3ccccc23)NC(=O)[C@H](CC(=O)O)NC(=O)[C@H](CCC(N)=O)NC(=O)[C@H](Cc2cn(C)c3ccccc23)NC1=O` [Compound 27, Ac-EGESGF[C(1)]I[1-Me-Trp]QDW[Sar]EHR[C(1)]TEGE[Peg3][Peg3]-K([17-Carboxy-heptadecanoyl][yGlu]G[yGlu])-NH2] (Ac-EGESGFCI[Trp(1-Me)]QDW[Sar]EHRCTEGE[AEEA][AEEA]K([γGlu-Gly-γGlu-C18 diacid])-NH2; linker 7-17 via CH2) were, in that order, 17 nM and less than 100 nM.
